Experimental findings from patent publication US5593969A, “Lipid-A analogs: monosaccharide and dissaccharide compounds for inhibiting binding of lipid A receptors to lipid A receptors” (IGEN Incorporated, priority 1993, dated 1997) are described below.

One assay concerns Pseudomonas aeruginosa. Type of assay: in vivo, Pseudomonas aeruginosa in ICR mice. The conditions noted are these: Lipid-A at 1 μg/mouse.
Assay [1] in a line: Serum antibody titre on Lipid-A by ELISA after liposome immunization. Type of assay: in vivo, Balb/c mice. Particulars: Lipid-A liposomes with HEL[105-120], HEL primed. How it is done: i) A stock solution of lipids for the formation of liposomes was prepared by mixing 10 mM solutions of dimyristoyl phosphatidyl choline, dicetyl phosphate and cholesterol (all from Sigma Chemicals) in the ratio 1.0:0.11:0.75. This stock was aliquotted into 1.0 ml volumes and dried under argon and stored at -20° C. until used.
ii) 500 μg of immunogen 3D dissolved in CHCl3 was dried into a 50 ml round bottomed flask on a rotary evaporator. One aliquot of the lipid stock was dissolved in 1 ml of CHCl3 :MeOH (9:1) and added to the dried immunogen 3D. The dissolved lipids were thoroughly mixed then dried together on a rotary evaporator under argon until all solvent had been removed and then for an additional 15 mins. The flask was then placed in a high vacuum dessicator for 2 hrs. 1.0 ml of swelling solution, approximately 0.9% NaCl, was added to the dry lipid film with 0.5 g of glass beads and mixed vigorously by swirling and vortexing. Liposomes were allowed to swell at room temperature overnight. […]
Mice which were primed with HEL and immunized with Immunogen 3D("Imm-3D") and Lipid-A incorporated separately into liposomes along with the peptide HEL[105-120] […] Seven days after the final immunization, serum samples were taken and the titres of IgG and IgM anti-Lipid-A antibodies determined separately by ELISA. […]

For a further assay, the system named is tumor cells. As to the kind of experiment: Antitumor activity (Meth A fibrosarcoma, melanoma or Pro b cells). It counts as in vivo. The conditions noted are these: 250, 100 or 10 μg/mouse or up to 10 μg/kg, intravenously or intratumorly.

Regarding Lipid-A, in the assay with Pseudomonas aeruginosa, the “protective activity against gram-negative bacteria” value is on record as “exhibits protective activity”. The “IgG antibody responses to the eliciting antigen” value in assay [1] is “enhanced IgG antibody responses”. Also, in the assay with tumor cells, the tumor growth entry is “retarded or prevented”.
